# Test results taken from patent US20050288347A1, “Certain triazole-based compounds, compositions, and uses thereof” (priority 2004, published 2005).
# Entries after “also recorded” stand apart in the source; their conditions may differ.
# Biological target: protein kinase
# Test: HTS ATP-utilizing enzyme assay, off-chip mobility-shift format (Caliper HTS 250)
# Format: biochemical, human
# Conditions: test compound 10 μM; for Kinase: kinase(s) for which the compound exhibits protein kinase inhibitory activity, active = greater than three-sigma from the mean activity of inactive compounds; for protein kinase against which the compound exhibits inhibitory activity (Table 3): active = activity greater than three-sigma from the mean of the predominately inactive population for that enzyme
# Summary of the method: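 Kinase reactions ran 2.5 h at 20 to 22 °C with test compound at 10 μM, in a HEPES pH 7.5 master buffer containing Triton X-100 and BSA. Peptide substrate and phosphorylated product separated by mobility shift; inhibition normalized to DMSO (0%) and EDTA (100%) controls, with three-sigma thresholds for hits.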
Kinase,protein kinase against which the compound exhibits inhibitory activity (Table 3),SMILES
–,PDGFRR-α and FLT-3 and FYN,COc1ccc(N)cc1Cc1nnc(SCc2c(Cl)cccc2Cl)n1-c1ccccc1
AURORA-A,–,COc1ccccc1-c1nnc(SCC(=O)Nc2ccccc2)n1C
AURORA-A and FYN,–,Cc1cc(NC(=O)CSc2nnc(-c3cc4ccccc4cc3O)n2C)no1
GSK3-β; also recorded: GSK3-α,–,"CCCOc1ccc(CCc2nnc(S)n2-c2ccccc2)cc1 [4-phenyl-5-(4-propoxyphenethyl)-4H-1,2,4-triazole-3-thiol]"
AKT1,–,Cc1ccc(S(=O)(=O)Nc2ccc(-c3nnc(SCC(=O)N4CCCCC4)n3C)cc2)cc1
–,DGFRR-α,COc1ccc(C(=O)NNC(=O)CSc2nnc(C)n2CCc2ccccc2)cc1
CHEK2 and SYK,–,COc1ccc(C(=O)CSc2nnc(CNc3ccc(C)cc3)n2-c2ccccc2)cc1
GSK3-β and GSK3-α and AKT1,–,CCc1nnc(NC(=O)CSc2nnc(-c3ccc(O)cc3)n2-c2ccc(OC)cc2)s1
–,GSK3-β; also recorded: GSK3-α,"Cc1ccc(-n2c(SCCO)nnc2-c2ccncc2)cc1 [2-(5-(pyridin-4-yl)-4-p-tolyl-4H-1,2,4-triazol-3-ylthio)ethanol]"
PDGFRR-α,–,COC(=O)CSc1nnc(CNc2ccc(OC)cc2)n1-c1ccccc1
–,GSK3-α; also recorded: GSK3-β,O=C(O)c1ccc(CSc2nnc(-c3ccncc3)n2Cc2ccco2)cc1
AURORA-A,–,"Cc1ccc(OCc2nnc(SC(C)C(=O)O)n2-c2ccccc2)cc1 (stereo not shown) [2-(4-phenyl-5-(p-tolyloxymethyl)-4H-1,2,4-triazol-3-ylthio)propanoic acid]"
GSK3-α,–,CCOC(=O)CN(C(=O)CSc1nnc(-c2ccccc2)n1-c1ccccc1OC)c1cccc([N+](=O)[O-])c1
–,MSK1,"c1ccc(CCn2c(SCc3ccccc3)nnc2-c2cccnc2)cc1 [3-(5-(benzylthio)-4-phenethyl-4H-1,2,4-triazol-3-yl)pyridine]"
SRC,–,NC(=O)CSc1nnc(-c2cc3ccccc3cc2O)n1Cc1ccco1
MAPKAPK-2,–,Cc1ccc(NC(=O)CSc2nnc(CNc3cccc(C(F)(F)F)c3)n2-c2ccccc2)cc1
AURORA-A,–,"C=CCNC(=O)CSc1nnc(-c2ccccc2O)n1-c1ccc(C)cc1 [N-allyl-2-(5-(2-hydroxyphenyl)-4-p-tolyl-4H-1,2,4-triazol-3-ylthio)acetamide]"
CDK2-cyclinA; also recorded: AURORA-A,–,O=C(CSc1nnc(-c2ccccc2O)n1Cc1ccccc1)N(c1ccccc1)c1ccccc1

Kinase,protein kinase against which the compound exhibits inhibitory activity (Table 3),SMILES
–,AURORA-A,CCOc1ccc2nc(-c3ccc(OC)cc3)cc(-c3nnc(SCc4ccc(F)cc4C(F)(F)F)n3C)c2c1
–,ROCK2,CCC(O)CSc1nnc(-c2cccc(Cl)c2)n1-c1ccccc1OC (stereo not shown)
MSK2 and CDK1,–,COc1ccc(NC(=O)CSc2nnc(-c3ccccc3O)n2-c2ccc(C)cc2)c(OC)c1
–,AURORA-A,"Oc1ccccc1-c1nnc(SCc2ccc(F)cc2)n1Cc1ccccc1 [2-(4-benzyl-5-(4-fluorobenzylthio)-4H-1,2,4-triazol-3-yl)phenol]"
AKT1,–,Cc1ccc(-n2c(CNc3ccc(F)cc3)nnc2SCC(=O)Nc2ccccc2C(F)(F)F)cc1
–,INSR and SYK and PAK2,"COc1ccc(-c2nnc(SCc3ccccc3)n2-c2ccccc2)cc1 [3-(benzylthio)-5-(4-methoxyphenyl)-4-phenyl-4H-1,2,4-triazole]"
–,CDK2-cyclinA,Fc1ccc(NCc2nnc(SCCN3CCOCC3)n2-c2ccccc2)cc1
–,PDGFRR-α and MSK2,Cc1cccc(NCc2nnc(SCc3ccc(Cl)cc3)n2-c2ccccc2)c1
GSK3-β; also recorded: GSK3-α,–,"Sc1nnc(CNc2cccc(Cl)c2)n1-c1ccccc1 [5-((3-chlorophenylamino)methyl)-4-phenyl-4H-1,2,4-triazole-3-thiol]"
–,CDK1,COCCCn1c(SCc2ccccc2Cl)nnc1-c1ccc(C(C)(C)C)cc1
CDK2-cyclinE,–,"CC(C)Cn1c(SCC(=O)OCc2ccccc2)nnc1-c1ccccc1O [benzyl 2-(5-(2-hydroxyphenyl)-4-isobutyl-4H-1,2,4-triazol-3-ylthio)acetate]"
–,AURORA-A,COc1ccccc1-n1c(SCCC(=O)OCc2ccccc2)nnc1C1CCCCC1
–,LCK,Clc1cccc(NCc2nnc(SCc3ccccc3Cl)n2-c2ccccc2)c1
PKA and DAPK1,–,"Cc1nnc(SC(C)C(=O)Nc2ccccc2)n1Cc1ccccc1 (stereo not shown) [2-(4-benzyl-5-methyl-4H-1,2,4-triazol-3-ylthio)-N-phenylpropanamide]"
–,ROCK2,COc1ccccc1-n1c(SC2Cc3ccccc3C2=O)nnc1-c1cccc(Cl)c1 (stereo not shown)
FYN,–,CNC(=O)CSc1nnc(-c2cc3ccccc3cc2O)n1C
GSK3-α; also recorded: GSK3-β,–,COc1ccc(-n2c(S)nnc2CNc2cccc(C(F)(F)F)c2)cc1

# Second part, the compound before the results:
SMILES,Kinase,protein kinase against which the compound exhibits inhibitory activity (Table 3)
"CCn1c(S)nnc1COc1ccccc1OC [4-ethyl-5-((2-methoxyphenoxy)methyl)-4H-1,2,4-triazole-3-thiol]",GSK3-α; also recorded: GSK3-β; also recorded: AURORA-A,–
COc1ccc(NCc2nnc(SCC(=O)Nc3sc4c(c3C#N)CCCC4)n2C)cc1,DYRK2; also recorded: CDK2-cyclinE,–
"Cc1cccc(-c2nnc(SCCN3CCOCC3)[nH]2)c1 [4-(2-(5-m-tolyl-4H-1,2,4-triazol-3-ylthio)ethyl)morpholine]",–,AURORA-A; also recorded: GSK3-β; also recorded: GSK3-α
COc1ccc(C(=O)NNC(=O)CSc2nnc(C)n2CC2CCCO2)cc1 (stereo not shown),–,SYK
"CCn1c(SCc2ccc(C(C)(C)C)cc2)nnc1-c1cccnc1 [3-(5-(4-tert-butylbenzylthio)-4-ethyl-4H-1,2,4-triazol-3-yl)pyridine]",–,MAPKAPK-2
N#Cc1cccc(CSc2nnc(-c3cccs3)[nH]2)c1,–,AURORA-A; also recorded: GSK3-β; also recorded: GSK3-α
Cn1c(SCC(=O)N2CCCC2)nnc1-c1ccc(S(=O)(=O)N2CCOCC2)cc1,AURORA-A,–
"C=C(C)Cn1c(SCC(=O)O)nnc1-c1ccco1 [2-(5-(furan-2-yl)-4-(2-methylallyl)-4H-1,2,4-triazol-3-ylthio)acetic acid]",HCK and CHEK2,–
COc1ccc(C(=O)CSc2nnc(C3CCCCC3)n2C)cc1,SYK,–
"C=CCn1c(S)nnc1-c1cc2ccccc2cc1O [3-(4-allyl-5-mercapto-4H-1,2,4-triazol-3-yl)naphthalen-2-ol]",MSK1,–
"O=C(CSc1nnc(COc2ccc(Cl)cc2)[nH]1)c1ccccc1 [2-(5-((4-chlorophenoxy)methyl)-4H-1,2,4-triazol-3-ylthio)-1-phenylethanone]",GSK3-α; also recorded: FLT-3; also recorded: GSK3-β,–
O=C(CSc1nnc(-c2ccc(O)cc2)n1Cc1ccco1)Nc1nc2c(s1)CCCC2,GSK3-β; also recorded: GSK3-α,–
Cn1c(SCC(=O)N(CC(=O)NC2CCCCC2)C2CCCC2)nnc1-c1ccc(C(C)(C)C)cc1,DAPK1,–
"OCC(O)CSc1nnc(-c2cccc(C(F)(F)F)c2)[nH]1 (stereo not shown) [3-(5-(3-(trifluoromethyl)phenyl)-4H-1,2,4-triazol-3-ylthio)propane-1,2-diol]",–,AURORA-A; also recorded: FLT-3; also recorded: CHEK2
"c1ccc(-c2nnc(SCCN3CCCC3)[nH]2)cc1 [3-phenyl-5-(2-(pyrrolidin-1-yl)ethylthio)-4H-1,2,4-triazole]",–,GSK3-α; also recorded: GSK3-β; also recorded: CHEK2
COCCCn1c(SCc2ccc(C(C)(C)C)cc2)nnc1-c1ccncc1,–,DYRK2
Cn1c(SCC(=O)NN(Br)C(=O)c2ccccc2)nnc1C1CCCCC1,–,SGK1
"c1csc(-c2nnc(SCCN3CCOCC3)[nH]2)c1 [4-(2-(5-(thiophen-2-yl)-4H-1,2,4-triazol-3-ylthio)ethyl)morpholine]",–,AURORA-A; also recorded: GSK3-β; also recorded: GSK3-α
"c1cncc(-c2nnc(SCC3CC3)[nH]2)c1 [3-(5-(cyclopropylmethylthio)-4H-1,2,4-triazol-3-yl)pyridine]",–,FLT-3; also recorded: AURORA-A
Cn1c(SCC(=O)c2ccc3c(c2)OCCO3)nnc1-c1ccc(S(=O)(=O)N2CCOCC2)cc1,AURORA-A,–
C=C(C)Cn1c(SCC(=O)NN)nnc1-c1ccc(Br)cc1,–,LCK
"O=C(O)c1ccc(CSc2nnc(-c3cccnc3)[nH]2)cc1 [4-((5-(pyridin-3-yl)-4H-1,2,4-triazol-3-ylthio)methyl)benzoic acid]",–,AURORA-A; also recorded: DYRK2
"COC(=O)c1ccc(CSc2nnc(-c3cccc(C)c3)[nH]2)cc1 [methyl 4-((5-m-tolyl-4H-1,2,4-triazol-3-ylthio)methyl)benzoate]",–,AURORA-A; also recorded: FLT-3; also recorded: c-TAK1
"OCCSc1nnc(-c2ccc(Cl)c(Cl)c2)[nH]1 [2-(5-(3,4-dichlorophenyl)-4H-1,2,4-triazol-3-ylthio)ethanol]",–,AURORA-A; also recorded: FLT-3; also recorded: CHEK2
CCOC(=O)c1sc(NC(=O)CSc2nnc(-c3ccc(OC)cc3)n2CCOC)nc1C,GSK3-β; also recorded: GSK3-α,–
"COC(=O)c1ccc(CSc2nnc(-c3cccs3)[nH]2)cc1 [methyl 4-((5-(thiophen-2-yl)-4H-1,2,4-triazol-3-ylthio)methyl)benzoate]",–,AURORA-A; also recorded: FLT-3; also recorded: c-TAK1
